This assay has as its target T1, human S1P1 receptors (Homo sapiens, UniProt P21453).
T1 construct: host or cells: HEK293
The experiment in a line: S1P1R antagonist assay (fluorescent membrane potential dye, cAMP readout). It is filed as cell-based. The conditions noted are these: HEK293 cells expressing human S1P1 receptors and CNG channel; 500 nM NECA; S1P1R agonist 10 nM; 90 minutes; read-out: EC50 or IC50 value.

T1 sequence (P21453 whole entry): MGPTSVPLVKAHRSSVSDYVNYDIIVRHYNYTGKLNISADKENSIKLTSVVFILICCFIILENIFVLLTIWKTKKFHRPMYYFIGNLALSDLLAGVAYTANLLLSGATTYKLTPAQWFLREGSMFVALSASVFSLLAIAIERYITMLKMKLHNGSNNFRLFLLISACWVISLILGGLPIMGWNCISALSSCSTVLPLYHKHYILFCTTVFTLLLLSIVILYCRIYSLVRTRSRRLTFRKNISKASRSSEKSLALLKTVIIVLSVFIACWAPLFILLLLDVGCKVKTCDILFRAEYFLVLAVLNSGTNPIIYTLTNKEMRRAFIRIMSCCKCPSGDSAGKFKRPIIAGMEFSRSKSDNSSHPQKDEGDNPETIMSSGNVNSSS

For the compound `O=C(Cc1ccc(F)cc1F)NC(COCc1ccccc1)C(=O)Nc1ccc(Oc2ccccc2)cc1` (stereo not shown) [Compound 363, N-(2-oxo-1-{[(phenylmethyl)oxy]methyl}-2-{[4-(phenyloxy)phenyl]amino}ethyl)-2-(2,4-difluorophenyl)acetamide], the IC50 (commonly the concentration at which inhibition is half-maximal) was greater than 1000 nM.
Regarding `O=C(Cc1cnc[nH]1)NC(COCc1ccccc1)C(=O)Nc1ccc(Oc2ccccc2)cc1` (stereo not shown) [Compound 142, 2-(2-(1H-imidazol-5-yl)acetamido)-3-benzyloxy-N-(4-phenoxyphenyl)propanamide], the IC50 was no more than 300 nM.
Under `Cc1ccoc1C(=O)NC(COCc1ccccc1)C(=O)Nc1ccc(Oc2ccccc2)cc1` (stereo not shown) [Compound 401, 3-methyl-N-(2-oxo-1{[(phenylmethyl)oxy]methyl}-2-{[4-(phenyloxy)phenyl]amino}ethyl)furan-2-carboxamide] stands greater than 1000 nM; under `Cc1cccc(C[C@@H]2C[C@@H](C(=O)Nc3ccc(Oc4ccc(F)cc4)cc3)N(C(=O)Cn3cncn3)C2)c1` [Compound 171, (2S,4R)-1-(2-(1H-1,2,4-triazol-1-yl)acetyl)-N-(4-(4-fluorophenoxy)phenyl)-4-(3-methylbenzyl)pyrrolidine-2-carboxamide], no more than 300 nM.
Under `O=C(Cc1cccnc1)N[C@@H](COCc1ccccc1)C(=O)Nc1ccc(Oc2ccc(F)cc2)cc1` [Compound 247, (S)-3-(benzyloxy)-N-(4-(4-fluorophenoxy)phenyl)-2-(2-(pyridin-3-yl)acetamido)propanamide] stands no more than 300 nM; under `O=C(Cc1cnc[nH]1)N[C@@H](COCc1ccccc1)C(=O)Nc1ccc(Oc2ccccc2)c(Cl)c1` [Compound 147, (S)-2-(2-(1H-imidazol-4-yl)acetamido)-3-(benzyloxy)-N-(3-chloro-4-phenoxyphenyl)propanamide], no more than 300 nM.
As to `O=C(Nc1ccc(Oc2ccc(F)cc2)cc1)[C@@H]1C[C@@H](c2ccccc2)CN1C(=O)Cn1cncn1` [Compound 78, (2S,4S)-1-(2-(1H-1,2,4-triazol-1-yl)acetyl)-N-(4-(4-fluorophenoxy)phenyl)-4-phenylpyrrolidine-2-carboxamide], the IC50 lay within 300 to 1000 nM.
For the compound `O=C(Cc1ccc2c(c1)OCO2)NC(COCc1ccccc1)C(=O)Nc1ccc(Oc2ccccc2)cc1` (stereo not shown) [Compound 328, N-(2-oxo-1-{[(phenylmethyl)oxy]methyl}-2-{[4-(phenyloxy)phenyl]amino}ethyl)-1,3-benzodioxol-5-ylacetamide], the half-maximal inhibitory concentration (IC50) was greater than 1000 nM.
Under `Cc1cc(CC(=O)N[C@@H](COCc2ccccc2)C(=O)Nc2ccc(Oc3ccc(F)cc3)cc2)[nH]n1` [Compound 166, (S)-3-(benzyloxy)-N-(4-(4-fluorophenoxy)phenyl)-2-(2-(3-methyl-1H-pyrazol-5-yl)acetamido)propanamide] stands no more than 300 nM; under `O=C(CCC(=O)c1cccs1)NC(COCc1ccccc1)C(=O)Nc1ccc(Oc2ccccc2)cc1` (stereo not shown) [Compound 312, 4-oxo-N-(2-oxo-1-{[(phenylmethyl)oxy]methyl}-2-{[4-(phenyloxy)phenyl]amino}ethyl)-4-(2-thienyl)butanamide], greater than 1000 nM; under `COc1ccccc1N1CCN(CC(=O)N[C@@H](COCc2ccccc2)C(=O)Nc2ccc(Oc3ccc(F)cc3)cc2)CC1` [Compound 217, (S)-3-(benzyloxy)-N-(4-(4-fluorophenoxy)phenyl)-2-(2-(4-(2-methoxyphenyl)piperazin-1-yl)acetamido)propanamide], 300 to 1000 nM.
Under `COC(C(=O)NC(COCc1ccccc1)C(=O)Nc1ccc(Oc2ccccc2)cc1)c1ccccc1` (stereo not shown) [Compound 353, N-(2-oxo-1-{[(phenylmethyl)oxy]methyl}-2-{[4-(phenyloxy)phenyl]amino}ethyl)-2-methoxy-2-phenylacetamide] stands greater than 1000 nM; under `O=C(Nc1ccc(Oc2ccc(F)cc2)cc1)[C@@H]1C[C@@H](Cc2cccc(Cl)c2)CN1C(=O)Cn1ccnn1` [Compound 263, (2S,4R)-1-(2-(1H-1,2,3-triazol-1-yl)acetyl)-4-(3-chlorobenzyl)-N-(4-(4-fluorophenoxy)phenyl)pyrrolidine-2-carboxamide], no more than 300 nM.
For `CC1CN(CC(=O)N[C@@H](COCc2ccccc2)C(=O)Nc2ccc(Oc3ccc(F)cc3)cc2)CC(C)O1` (stereo partly drawn) [Compound 265, (2S)-3-(benzyloxy)-2-(2-(2,6-dimethylmorpholino)acetamido)-N-(4-(4-fluorophenoxy)phenyl)propanamide], the concentration for half-maximal inhibition (IC50) is no more than 300 nM.
As to `O=C(CSc1ccccc1)NC(COCc1ccccc1)C(=O)Nc1ccc(Oc2ccccc2)cc1` (stereo not shown) [Compound 313, N-(2-oxo-1-{[(phenylmethyl)oxy]methyl}-2-{[4-(phenyloxy)phenyl]amino}ethyl)-2-(phenylthio)acetamide], the IC50 was 300 to 1000 nM.
With `O=C(Nc1ccc(Oc2ccc(F)cc2)cc1)[C@@H]1C[C@@H](c2ccccc2)CN1C(=O)Cc1cnc[nH]1` [Compound 251, (2S,4S)-1-(2-(1H-imidazol-5-yl)acetyl)-N-(4-(4-fluorophenoxy)phenyl)-4-phenylpyrrolidine-2-carboxamide], the half-maximal inhibitory concentration (IC50) is no more than 300 nM.

The record behind these values is patent US8791102B2, “Acetanilide sphingosine-1-phosphate receptor antagonists” (Exelixis, Inc., priority 2008, dated 2014).
